In US8569336B2, “Compounds for the treatment of inflammatory disorders” (priority 2008, dated 2013):
Read-outs that look alike come from different tables or passages of the source.

Tests used:
[1] = molecular target: T1, purified catalytic domain of recombinant human TACE (rhTACEc) (Homo sapiens, UniProt P78536, N452Q/S266A); test: TACE kinetic assay: cleavage of internally quenched peptide substrate TNF-FRET 2 (Ki); format: biochemical; settings: TNF-FRET 2 substrate
T1 construct: 6xHis (C); made in house; host or cells: baculovirus/Hi5 insect cells
T1 sequence (P78536 215-477 S266A/N452Q): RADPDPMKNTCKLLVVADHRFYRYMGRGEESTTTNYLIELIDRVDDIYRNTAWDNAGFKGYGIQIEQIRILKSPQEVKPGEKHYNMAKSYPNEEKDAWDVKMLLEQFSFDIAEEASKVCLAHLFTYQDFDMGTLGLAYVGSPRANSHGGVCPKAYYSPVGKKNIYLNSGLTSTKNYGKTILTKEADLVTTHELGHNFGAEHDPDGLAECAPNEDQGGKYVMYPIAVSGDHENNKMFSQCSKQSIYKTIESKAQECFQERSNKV

[2] = test system: TNF-α production from human whole blood; test: Inhibition of TNF-α production from human whole blood (hWBA), LPS stimulated, ELISA; format: cell-based; settings: Homo sapiens, TNF-α by ELISA, read-out: hWBA (IC50)
[3] = 3.5 h, human whole blood diluted 1:1, LPS stimulated, 3.5 h
[4] = LPS-stimulated human whole blood
[5] = human whole blood diluted 1:1, LPS stimulated

## COc1ccc2c(c1F)C(=O)N(C[C@@]1(c3cc4c(Cl)nccc4o3)NC(=O)NC1=O)C2 [Compound 2216]
[1]; read-out: Ki
  Ki: 0.41 nM
[2]; [3]
  IC50: 313 nM

## CSc1ccc2c(c1)C(=O)N(C[C@@]1(c3cc4cnccc4o3)NC(=O)NC1=O)C2 [Compound 309]
[1]; read-out: Ki
  Ki: 0.377 nM
[2]; [4]
  IC50: 662 nM

## COc1ccc2c(c1F)C(=O)N(C[C@@]1(c3cc4cc(-c5cc(=O)[nH]c(N)n5)ccc4o3)NC(=O)NC1=O)C2 [Compound 300]
[1]; read-out: Ki
  Ki: 0.538 nM
[2]; [4]
  IC50: 364 nM

## COc1ccc2c(c1)C(=O)N(C[C@@]1(c3cc4nc(-c5c(C)n[nH]c5C)ccc4o3)NC(=O)NC1=O)C2 [Compound 2101]
[1]; read-out: Ki
  Ki: 0.14 nM
[2]; [3]
  IC50: 203 nM

## COc1ccc2c(c1)C(=O)N(C[C@@]1(c3cc4nc(Nc5c(C)cnn5C)ccc4o3)NC(=O)NC1=O)C2 [Compound 2111]
[1]; read-out: Ki
  Ki: 0.762 nM
[2]; [3]
  IC50: 1130 nM

## COc1ccc2c(c1)C(=O)N(C[C@@]1(c3cc4cc(CNC(=O)N(C)C)ccc4o3)NC(=O)NC1=O)C2 [Compound 2486]
[1]; read-out: Ki
  Ki: 0.49 nM
[2]; [5]
  IC50: 1230 nM

## COc1ccc2c(c1)C(=O)N(C[C@@]1(c3cc4nc(N5CCN(c6ccncc6)CC5)ccc4o3)NC(=O)NC1=O)C2 [Compound 2143]
[1]; read-out: Ki
  Ki: 0.976 nM
[2]; [3]
  IC50: 551 nM

## CCNC(=O)OCc1cnc2cc([C@]3(CN4Cc5ccc(OC)cc5C4=O)NC(=O)NC3=O)oc2c1 [Compound 1944]
[1]; read-out: Ki
  Ki: 0.69 nM
[2]; [4]
  IC50: 2250 nM

## COc1ccc2c(c1)C(=O)N(C[C@@]1(c3cc4cnc(Cl)nc4o3)NC(=O)NC1=O)C2 [Compound 2301]
[1]; read-out: Ki
  Ki: 0.36 nM
[2]; [5]
  IC50: 532 nM

## COc1ccc2c(c1)C(=O)N(C[C@@]1(c3cc4cc5c(cc4o3)[C@@H](NC(=O)OC(C)(C)C)CC5)NC(=O)NC1=O)C2 [Compound 2507]
[1]; read-out: Ki
  Ki: 1.43 nM
[2]; [5]
  IC50: 4160 nM

## COc1ccc2c(c1)C(=O)N(C[C@@]1(c3cc4nc(N(CCN(C)C)c5cn[nH]c5)ccc4o3)NC(=O)NC1=O)C2 [Compound 1704]
[1]; read-out: Ki
  Ki: 0.86 nM
[2]; [4]
  IC50: 274 nM

## COc1ccc2c(c1)C(=O)N(C[C@@]1(c3cc4cnc(OC)cc4o3)NC(=O)NC1=O)C2 [Compound 2308]
[1]; read-out: Ki
  Ki: 0.328 nM
[2]; [5]
  IC50: 2110 nM

## COc1ccc2c(c1)C(=O)N(C[C@@]1(c3cc4nc(Nc5nccc(O)n5)ccc4o3)NC(=O)NC1=O)C2 [Compound 2144]
[1]; read-out: Ki
  Ki: 0.194 nM
[2]; [3]
  IC50: 267 nM

## COc1ccc2c(c1Cl)C(=O)N(C[C@@]1(c3cc4cnccc4o3)NC(=O)NC1=O)C2 [Compound 2306]
[1]; read-out: Ki
  Ki: 0.57 nM
[2]; [5]
  IC50: 834 nM

## COc1ccc2c(c1)C(=O)N(C[C@@]1(c3cc4nc(NS(C)(=O)=O)ccc4o3)NC(=O)NC1=O)C2 [Compound 1937]
[1]; read-out: Ki
  Ki: 2.17 nM
[2]; [4]
  IC50: 189 nM

## COc1ccc2c(c1)C(=O)N(C[C@@]1(c3cc4cc(C5CNC(=O)C5)ccc4o3)NC(=O)NC1=O)C2 (stereo partly drawn) [Compound 2215]
[1]; Ki
  Ki: 0.524 nM
[2]; [3]
  IC50: 381 nM

## CNCc1ccc2oc([C@]3(CN4Cc5ccc(OC)cc5C4=O)NC(=O)NC3=O)cc2c1 [Compound 2185]
[1]; read-out: Ki
  Ki: 3.99 nM
[2]; [3]
  IC50: 1040 nM

## COc1ccc2c(c1F)C(=O)N(C[C@@]1(c3cc4cc([C@]5(C)C(=O)NC(=O)N5C)c(F)cc4o3)NC(=O)NC1=O)C2 [Compound 1317]
[1]; read-out: Ki
  Ki: 0.47 nM
[2]; [4]
  IC50: 234 nM

## COc1ccc2c(c1)C(=O)N(C[C@@]1(c3cc4cnc(C5CC5)cc4o3)NC(=O)NC1=O)C2 [Compound 2287]
[1]; read-out: Ki
  Ki: 0.429 nM
[2]; [5]
  IC50: 575 nM

## COc1ccc2c(c1)C(=O)N(C[C@@]1(c3ccc(C(=O)N4CCOCC4)cc3)NC(=O)NC1=O)C2 [Compound 2405]
[1]; read-out: Ki
  Ki: 2.91 nM
[2]; [5]
  IC50: 2710 nM

## COc1ccc2c(c1)C(=O)N(C[C@@]1(c3cc4nc(N5CCC(OC)(OC)CC5)ccc4o3)NC(=O)NC1=O)C2 [Compound 2109]
[1]; read-out: Ki
  Ki: 0.75 nM
[2]; [3]
  IC50: 161 nM

## COc1ccc2c(c1)C(=O)N(C[C@@]1(c3ccc(-c4ccc(C5(C)NC(=O)NC5=O)nc4)cc3)NC(=O)NC1=O)C2 (stereo partly drawn) [Compound 2206]
[1]; read-out: Ki
  Ki: 0.82 nM
[2]; [3]
  IC50: 1780 nM

## COc1ccc2c(c1)C(=O)N(C[C@@]1(c3cc4cc(C5(C)NC(=O)NC5=O)cc(C)c4o3)NC(=O)NC1=O)C2 (stereo partly drawn) [Compound 2211]
[1]; read-out: Ki
  Ki: 0.216 nM
[2]; [3]
  IC50: 1550 nM

## COc1ccc2c(c1)C(=O)N(C[C@@]1(c3cc4cc(-c5cc(O)nn5C)cnc4o3)NC(=O)NC1=O)C2 [Compound 2276]
[1]; read-out: Ki
  Ki: 0.562 nM
[2]; [3]
  IC50: 222 nM

## Cn1cc(-c2ccc3c(c2)C(=O)N(C[C@@]2(c4cc5ncccc5o4)NC(=O)NC2=O)C3)cn1 [Compound 1742]
[1]; read-out: Ki
  Ki: 3.63 nM
[2]; [4]
  IC50: 3720 nM

## COc1ccc2c(c1)C(=O)N(C[C@@]1(c3cc4cc(CNC5CCCCC5)ccc4o3)NC(=O)NC1=O)C2 [Compound 2180]
[1]; read-out: Ki
  Ki: 0.443 nM
[2]; [3]
  IC50: 617 nM

## COc1ccc2c(c1)C(=O)N(C[C@@]1(c3cc4nc(C(=O)NCCN(C)C)ccc4o3)NC(=O)NC1=O)C2 [Compound 2466]
[1]; read-out: Ki
  Ki: 0.867 nM
[2]; [5]
  IC50: 567 nM

## COc1ccc2c(c1Br)C(=O)N(C[C@@]1(c3cc4ncccc4o3)NC(=O)NC1=O)C2 [Compound 1738]
[1]; read-out: Ki
  Ki: 1.4 nM
[2]; [4]
  IC50: > 10000 nM

## CNC(=O)c1cnc(C)c2cc([C@]3(CN4Cc5ccc(OC)cc5C4=O)NC(=O)NC3=O)oc12 [Compound 2447]
[1]; read-out: Ki
  Ki: 0.54 nM
[2]; [5]
  IC50: 554 nM

## COc1ccc2c(c1)C(=O)N(C[C@@]1(c3cc4cc(CC(N)=O)ccc4o3)NC(=O)NC1=O)C2 [Compound 2209]
[1]; read-out: Ki
  Ki: 2.51 nM
[2]; [3]
  IC50: 542 nM

## COCCN1CCN(c2ccc3oc([C@]4(CN5Cc6ccc(OC)cc6C5=O)NC(=O)NC4=O)cc3n2)CC1 [Compound 1500]
[1]; read-out: Ki
  Ki: 1.1 nM
[2]; [4]
  IC50: 333 nM

## COc1ccc2c(c1)C(=O)N(C[C@@]1(c3cc4c(C(C)=O)nccc4o3)NC(=O)NC1=O)C2 [Compound 2448]
[1]; read-out: Ki
  Ki: 0.8 nM
[2]; [5]
  IC50: 839 nM

## CCNc1nnc(-c2ccc3oc([C@]4(CN5Cc6ccc(OC)cc6C5=O)NC(=O)NC4=O)cc3n2)o1 [Compound 1906]
[1]; read-out: Ki
  Ki: 0.77 nM
[2]; [4]
  IC50: 606 nM

## COc1ccc2c(c1)C(=O)N(C[C@@]1(c3cc4cc(-c5cc(O)nc(N)n5)cnc4o3)NC(=O)NC1=O)C2 [Compound 302]
[1]; read-out: Ki
  Ki: 0.53 nM
[2]; [4]
  IC50: 151 nM

## COc1ccc2c(c1)C(=O)N(C[C@@]1(c3cc4cc(S(=O)(=O)NCCN(C)C)ccc4o3)NC(=O)NC1=O)C2 [Compound 2482]
[1]; read-out: Ki
  Ki: 0.67 nM
[2]; [5]
  IC50: 304 nM

## COC(=O)c1cnc2cc([C@]3(CN4Cc5ccc(OC)cc5C4=O)NC(=O)NC3=O)oc2c1 [Compound 1928]
[1]; read-out: Ki
  Ki: 0.52 nM
[2]; [4]
  IC50: 841 nM

## COc1ccc2c(c1)C(=O)N(C[C@@]1(c3cc4ncc(-c5ncc[nH]5)cc4o3)NC(=O)NC1=O)C2 [Compound 1943]
[1]; read-out: Ki
  Ki: 0.54 nM
[2]; [4]
  IC50: 742 nM

## CCOC(=O)N1CCc2cc([C@]3(CN4Cc5ccc(OC)cc5C4=O)NC(=O)NC3=O)oc2C1 [Compound 317]
[1]; read-out: Ki
  Ki: 2.13 nM
[2]; [4]
  IC50: 704 nM

## COc1ccc2c(c1)C(=O)N(C[C@@]1(c3cc4cc(-c5cc(O)n[nH]5)cnc4o3)NC(=O)NC1=O)C2 [Compound 2275]
[1]; read-out: Ki
  Ki: 1.08 nM
[2]; [3]
  IC50: 491 nM

## COc1ccc2c(c1)C(=O)N(C[C@@]1(c3cc4ncc(C(=O)NC5CC5)cc4o3)NC(=O)NC1=O)C2 [Compound 2460]
[1]; read-out: Ki
  Ki: 0.556 nM
[2]; [5]
  IC50: 321 nM

## COc1ccc2c(c1)C(=O)N(C[C@@]1(c3ccc(-c4cnc(N5CCCC5)nc4)cc3)NC(=O)NC1=O)C2 [Compound 1503]
[1]; read-out: Ki
  Ki: 2.4 nM
[2]; [4]
  IC50: 7090 nM

## COc1cc2c(cc1OC)C(=O)N(C[C@@]1(c3cc4cnccc4o3)NC(=O)NC1=O)C2 [Compound 200]
[1]; read-out: Ki
  Ki: 7.23 nM
[2]; [4]
  IC50: ≥ 10000 nM
